Measurements published in publication PMC6637912 (Molecular Plant Pathology, 2019).
Like-named read-outs stand apart in the source and are kept apart here.

Target: T1, RipN (Ralstonia pseudosolanacearum, UniProt Q8XQT8)
T1 construct: gene RSp1130
Details: Mg2+ important, NEBuffer 3, 30 min

T1 sequence (Q8XQT8 1-474): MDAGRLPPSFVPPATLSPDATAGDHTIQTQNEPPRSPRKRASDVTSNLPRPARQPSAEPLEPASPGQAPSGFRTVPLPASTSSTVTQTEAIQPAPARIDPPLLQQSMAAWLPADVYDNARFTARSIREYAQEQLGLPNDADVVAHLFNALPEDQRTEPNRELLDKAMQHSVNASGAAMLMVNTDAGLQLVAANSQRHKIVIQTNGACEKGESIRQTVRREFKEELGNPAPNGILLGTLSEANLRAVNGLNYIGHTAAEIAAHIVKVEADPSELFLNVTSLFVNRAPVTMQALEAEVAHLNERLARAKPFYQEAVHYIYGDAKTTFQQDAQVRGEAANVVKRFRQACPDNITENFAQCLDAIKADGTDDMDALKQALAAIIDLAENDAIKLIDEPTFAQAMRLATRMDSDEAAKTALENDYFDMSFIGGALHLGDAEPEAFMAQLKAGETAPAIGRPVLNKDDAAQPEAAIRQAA

Row | SMILES | phosphate colorimetric assay coupled to alkaline phosphatase (optimum pH 7.9-8.5) | phosphate colorimetric assay coupled to alkaline phosphatase
1 | Nc1ncnc2c1ncn2[C@@H]1O[C@H](COP(=O)(O)OP(=O)(O)OC[C@H]2OC(O)[C@H](O)[C@@H]2O)[C@@H](O)[C@H]1O (some centres unmarked) [ADPr] | RipN can hydrolyse ADPr, NADH, NAD, FAD (flavin adenine dinucleotide) and Ap4A | 
2 | NC(=O)C1=CN([C@@H]2O[C@H](COP(=O)(O)OP(=O)(O)OC[C@H]3O[C@@H](n4cnc5c(N)ncnc54)[C@H](O)[C@@H]3O)[C@@H](O)[C@H]2O)C=CC1 [NADH] |  | with ADPr and NADH being the preferred substrates in vitro
